Type in all cases: cell-based
The target in assay [1] is Stimulator of interferon genes protein (Homo sapiens) (UniProt Q86WV6). Description: Activation of human STING expressed in monocytes co-expressing IFN assessed as alkaline phosphatase secretion by SEAP reporter gene assay. On the technique in general: A reporter such as luciferase makes a cellular process visible.
Assay [2] has the same target. The assay can be described thus: Activation of human STING expressed in monocytes co-expressing IFN assessed as alkaline phosphatase secretion in presence of adenosine kinase inhibitor 5-iodotubercidin by SEAP reporter gene assay.
Assay [3] shares this target. Description: Activation of human STING expressed in monocytes co-expressing IFN assessed as alkaline phosphatase secretion in presence of adenosine deaminase inhibitor erytftro-9-(2-hydroxy-3-nonyl) adenine by SEAP reporter gene assay.

Data on 27 compounds can be found in ChEMBL document CHEMBL4602626, “Structure activity relationship, 6-modified purine riboside analogues to activate hSTING, stimulator of interferon genes” (Bioorg Med Chem Lett, 2020).

The structures appear in SMILES notation. Active and inactive are the calls of the source. The rule behind the calls is not given here.

Sequence of Stimulator of interferon genes protein (Homo sapiens) (Q86WV6 whole entry): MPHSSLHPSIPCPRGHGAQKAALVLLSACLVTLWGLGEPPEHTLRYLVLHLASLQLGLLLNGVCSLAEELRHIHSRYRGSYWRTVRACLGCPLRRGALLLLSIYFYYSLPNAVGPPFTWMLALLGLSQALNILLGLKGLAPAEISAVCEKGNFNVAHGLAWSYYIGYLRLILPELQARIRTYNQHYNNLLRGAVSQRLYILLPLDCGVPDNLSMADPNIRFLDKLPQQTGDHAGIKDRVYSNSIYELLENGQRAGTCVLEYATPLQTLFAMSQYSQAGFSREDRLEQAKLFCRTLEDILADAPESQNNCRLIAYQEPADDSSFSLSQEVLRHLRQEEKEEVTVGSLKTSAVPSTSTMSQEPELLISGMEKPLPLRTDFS

As to `OC[C@H]1O[C@@H](n2cnc3c(OCC(F)F)ncnc32)[C@H](O)[C@@H]1O`, the result in assay [1] was Active.

With `CCOc1nc(N)nc2c1ncn2[C@@H]1O[C@H](CO)[C@@H](O)[C@H]1O`, the outcome in assay [1] was inactive.

On to `CN(C)/C=N/c1ncnc2c1ncn2[C@H]1C[C@H](O)[C@@H](CO)O1`, for which, in assay [1], the result was inactive.

Take `CCOc1ncnc2c1ncn2[C@@H]1O[C@H](COP(=O)(N[C@@H](C)C(=O)OC(C)C)Oc2ccccc2)[C@@H](O)[C@H]1O` (some centres undefined): in assay [1], the outcome was Active.

Turning to `OC[C@H]1O[C@@H](n2cnc3c(NCc4ccccc4)ncnc32)[C@H](O)[C@@H]1O`, in assay [1], the outcome was Active.

As for `OC[C@H]1O[C@@H](n2cnc3c(NCc4ccc(-c5ccccc5)cc4)ncnc32)[C@H](O)[C@@H]1O`, the outcome in assay [1] was Active.

`CC(C)CNc1ncnc2c1ncn2[C@@H]1O[C@H](CO)[C@@H](O)[C@H]1O`: the result in assay [1] was Active.

For the compound `CN(C)/C=N/c1nc2c(ncn2[C@@H]2O[C@H](CO)[C@@H](O)[C@H]2O)c(=O)[nH]1`, the outcome in assay [1] was inactive.

Regarding `CN(C)/C=N/c1ncnc2[nH]cnc12`, in assay [1], the result was inactive.

On to `CN(C)CCNc1ncnc2c1ncn2[C@@H]1O[C@H](CO)[C@@H](O)[C@H]1O`, for which the outcome in assay [1] was Active.

As to `C=CCNc1ncnc2c1ncn2[C@@H]1O[C@H](CO)[C@@H](O)[C@H]1O`, in assay [1], the result was Active.

As for `CCOc1ncnc2c1ncn2[C@@H]1O[C@H](CO)[C@@H](O)[C@H]1O`, the result in assay [1] and in assay [3] was Active. Moreover, the outcome in assay [2] was inactive.

For `CN(C)/C=N/c1ncnc2c1ncn2[C@@H]1O[C@H](CO)[C@@H](O)[C@H]1O`, the outcome in assay [1] was Active.

Consider `CCCOc1ncnc2c1ncn2[C@@H]1O[C@H](CO)[C@@H](O)[C@H]1O`, for which the outcome in assay [1] was Active.

Consider `CCOc1ncnc2c1ncn2[C@@H]1O[C@H](COC(=O)[C@@H](N)C(C)C)[C@@H](O)[C@H]1O`, for which the outcome in assay [1] was Active.

As to `OC[C@H]1O[C@@H](n2cnc3c(OCC(F)(F)F)ncnc32)[C@H](O)[C@@H]1O`, the outcome in assay [1] was Active.

`CCCCC(=O)OC[C@H]1O[C@@H](n2cnc3c(OCC)ncnc32)[C@H](O)[C@@H]1O`: the outcome in assay [1] was Active.

`COCCNc1ncnc2c1ncn2[C@@H]1O[C@H](CO)[C@@H](O)[C@H]1O`: the result in assay [1] was Active.

With `CCOc1ncnc2c1ncn2[C@@H]1O[C@H](COC(=O)C(C)C)[C@@H](OC(=O)C(C)C)[C@H]1OC(=O)C(C)C`, in assay [1], the outcome was Active.

`COc1ncnc2c1ncn2[C@@H]1O[C@H](CCl)[C@@H](O)[C@H]1O`: the outcome in assay [1] was inactive.

As to `CCOc1ncnc2[nH]cnc12`, in assay [1], the result was inactive.

As to `CCCCC(=O)OC[C@H]1O[C@@H](n2cnc3c(OCC)ncnc32)[C@H](OC(=O)CCCC)[C@@H]1OC(=O)CCCC`, the outcome in assay [1] was Active.

As for `OC[C@H]1O[C@@H](n2cnc3c(OCc4ccccc4)ncnc32)[C@H](O)[C@@H]1O`, the outcome in assay [1] was inactive.

For the compound `CCOc1ncnc2c1ncn2[C@H]1C[C@H](O)[C@@H](CO)O1`, the outcome in assay [1] was inactive.

`CC(C)Oc1ncnc2c1ncn2[C@@H]1O[C@H](CO)[C@@H](O)[C@H]1O`: the result in assay [1] was inactive.

On to `CN(C)/C=N/c1ccn([C@@H]2O[C@H](CO)[C@@H](O)[C@H]2O)c(=O)n1`, for which, in assay [1], the outcome was inactive.

With `CCNc1ncnc2c1ncn2[C@@H]1O[C@H](CO)[C@@H](O)[C@H]1O`, the outcome in assay [1] was Active.
